Measurements as given in patent US4562204A, “Trans-Δ^2 -prostaglandin D derivatives, process for their preparation and compositions containing them” (Ono Pharmaceutical Co., Ltd., priority 1982, dated 1985).

Key:
[1] = test system: human myelogenous leukemic cells (HL-60); assay: Inhibition of the proliferation of human myelogenous leukemic cells (HL-60), Trypan Blue staining; assay type: cell-based; conditions: HL-60, 96 h, 37° C., 4 days, relative to control (0.1% ethanol), read-out: Percent Inhibition of proliferation, HL-60 cells; for inhibition at 1 µg/mL: 1 μg/ml; for inhibition at 5 µg/mL: 5 μg/ml
Protocol: Test on the Inhibition of the Proliferation of Human Myelogenous Leukemic Cells (HL-60) Experimental method
The test on the inhibition of the proliferation of human myelogenous leukemic cells was conducted by a well known method. The human myelogenous leukemic cells (HL-60) were added to an RPMI culture solution containing 10% bovine fetal serum, the number of cells in the culture solution was adjusted to 1×10^5 cells/ml, a solution in ethanol of the compound under test was added to give a concentration of 5 μg/ml or 1 μg/ml, and the mixture was subjected to stationary culture at 37° C. for 4 days. As a control, a culture solution containing 0.1% of ethanol was similarly cultured. The culture solutions were stained by the Trypan Blue staining method and the surviving cell number was measured to determine the degree of inhibition relative to the control.

[2] = test system: cells originated from human mouth tumour (KB-cells); assay: Inhibition of the proliferation of cells originated from human mouth tumour (KB-cells), Trypan Blue staining; assay type: cell-based; conditions: 96 h, 37° C., 4 days, relative to control (0.1% ethanol), read-out: Percent Inhibition of proliferation, KB-cells; for inhibition at 1 µg/mL: 1 μg/ml; for inhibition at 5 µg/mL: 5 μg/ml
Protocol: Test on the Inhibition of the Proliferation of Cells Originated from Human Mouth Tumour (KB-cells) Experimental method
The test on the inhibition of the proliferation of cells originated from human mouth tumour was conducted by a well known method. The cells originated from human mouth tumour (KB-cells) were added to an Eagle's MEM culture solution containing 10% bovine fetal serum, the number of cells in the culture solution was adjusted to 1×10^5 cells/ml, a solution in ethanol of the compound under test was added to give a concentration of 5 μg/ml or 1 μg/ml, and the mixture was subjected to stationary culture at 37° C. for 4 days. As a control, a culture solution containing 0.1% of ethanol was similarly cultured. The culture solutions were stained by the Trypan Blue staining method and the surviving cell number was measured to determine the degree of inhibition relative to the control.

| Structure (SMILES) | inhibition at 1 µg/mL [1] | inhibition at 5 µg/mL [1] | inhibition at 1 µg/mL [2] | inhibition at 5 µg/mL [2] |
| --- | --- | --- | --- | --- |
| CCCCCC=CC=C1C(=O)C=C[C@@H]1C/C=C\C/C=C/C(=O)O [(2E,5Z,9Z,14EZ)-11-oxoprosta-2,5,9,12,14-pentaenoic acid] | 4.8% | 98.3% | 0% | 100% |
| CCCCC[C@H](O)/C=C/[C@H]1C(=O)C=C[C@@H]1C/C=C\C/C=C/C(=O)O [Trans-Δ^2-9-deoxy-Δ^9 -PGD2, (2E,5Z,9Z,13E)-(15S)-11-oxo-15-hydroxyprosta-2,5,9,13-tetraenoic acid] | 1.4% | 99% | 9.7% | 98.5% |
| CCCCC[C@H](O)/C=C/[C@H]1C(=O)C[C@H](O)[C@@H]1C/C=C\C/C=C/C(=O)O [Trans-Δ^2 -PGD2, (2E,5Z,13E)-(9α,15S)-9,15-dihydroxy-11-oxoprosta-2,5,13-trienoic acid] | 0% | 19.4% | 2.1% | 17.9% |
